Measurements as given in publication PMC9142520, “Molecular encoding and synaptic decoding of context during salt chemotaxis in C. elegans” (Nature Communications, 2022).

Target: T1, GLR-1(+STG-1, SOL-1) (Caenorhabditis elegans, UniProt P34299)
T1 construct: cRNAs of GLR-1, SOL-1 and STG-1 co-injected into Xenopus laevis oocytes; homomeric GLR-1 with auxiliary proteins; with CUB domain-containing protein SOL-1 (suppressor of lurcher 1); Stargazin-like protein STG-1
T1 sequence (P34299 26-962): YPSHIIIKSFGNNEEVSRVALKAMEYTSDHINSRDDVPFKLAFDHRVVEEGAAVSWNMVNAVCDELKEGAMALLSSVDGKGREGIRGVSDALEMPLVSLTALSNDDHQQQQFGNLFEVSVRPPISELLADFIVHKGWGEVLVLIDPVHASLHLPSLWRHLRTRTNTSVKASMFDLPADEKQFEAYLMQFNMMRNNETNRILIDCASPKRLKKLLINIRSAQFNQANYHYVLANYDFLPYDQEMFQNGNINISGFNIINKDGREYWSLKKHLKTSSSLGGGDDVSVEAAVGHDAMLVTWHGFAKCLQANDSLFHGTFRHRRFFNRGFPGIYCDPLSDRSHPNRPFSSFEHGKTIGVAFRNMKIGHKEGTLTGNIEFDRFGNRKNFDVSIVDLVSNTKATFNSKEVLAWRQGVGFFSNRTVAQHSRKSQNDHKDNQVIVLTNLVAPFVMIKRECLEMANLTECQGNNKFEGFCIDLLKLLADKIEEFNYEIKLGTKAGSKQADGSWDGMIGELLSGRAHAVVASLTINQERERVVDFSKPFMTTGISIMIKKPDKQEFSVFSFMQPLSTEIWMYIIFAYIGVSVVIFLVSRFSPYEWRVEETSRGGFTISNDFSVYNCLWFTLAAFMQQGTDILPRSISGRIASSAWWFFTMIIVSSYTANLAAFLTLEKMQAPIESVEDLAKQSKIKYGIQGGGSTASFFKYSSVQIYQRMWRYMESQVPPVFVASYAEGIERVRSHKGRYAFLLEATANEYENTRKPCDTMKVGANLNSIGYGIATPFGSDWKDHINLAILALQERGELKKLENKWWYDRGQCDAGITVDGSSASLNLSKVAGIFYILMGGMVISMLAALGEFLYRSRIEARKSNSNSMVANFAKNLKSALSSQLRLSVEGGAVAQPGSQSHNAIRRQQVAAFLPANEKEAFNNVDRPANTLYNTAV
T1 sequence (Q15KL0 1-366 partner): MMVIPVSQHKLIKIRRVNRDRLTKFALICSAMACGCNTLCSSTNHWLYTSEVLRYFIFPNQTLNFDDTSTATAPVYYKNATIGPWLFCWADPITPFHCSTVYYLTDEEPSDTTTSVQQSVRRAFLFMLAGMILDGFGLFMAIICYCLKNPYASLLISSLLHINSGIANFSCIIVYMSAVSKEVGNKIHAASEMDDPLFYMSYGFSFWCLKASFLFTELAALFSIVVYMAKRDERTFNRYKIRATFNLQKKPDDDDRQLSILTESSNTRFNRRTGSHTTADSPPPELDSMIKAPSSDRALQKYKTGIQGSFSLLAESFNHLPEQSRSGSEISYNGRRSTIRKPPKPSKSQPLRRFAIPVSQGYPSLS
T1 sequence (Q93212 24-594 partner): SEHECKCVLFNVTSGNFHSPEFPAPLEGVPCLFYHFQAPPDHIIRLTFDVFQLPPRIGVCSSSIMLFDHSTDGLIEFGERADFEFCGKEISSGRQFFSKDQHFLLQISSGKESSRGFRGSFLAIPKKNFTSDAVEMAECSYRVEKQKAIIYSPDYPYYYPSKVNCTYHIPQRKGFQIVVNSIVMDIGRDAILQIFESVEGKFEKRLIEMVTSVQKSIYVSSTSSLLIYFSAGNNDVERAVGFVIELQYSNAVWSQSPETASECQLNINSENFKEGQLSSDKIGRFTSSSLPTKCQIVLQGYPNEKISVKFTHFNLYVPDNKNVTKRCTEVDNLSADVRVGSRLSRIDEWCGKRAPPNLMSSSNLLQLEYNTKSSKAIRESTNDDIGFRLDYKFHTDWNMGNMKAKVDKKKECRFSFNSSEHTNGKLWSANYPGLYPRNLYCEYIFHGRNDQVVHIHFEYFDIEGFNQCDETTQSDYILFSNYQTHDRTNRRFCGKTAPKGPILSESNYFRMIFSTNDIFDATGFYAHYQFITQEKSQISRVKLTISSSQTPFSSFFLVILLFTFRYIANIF
Assay: two-electrode voltage clamp of Xenopus oocytes, glutamate dose-response current
Format: cell-based
Conditions: agonist; inward cation current; with SOL-1 and STG-1; clamped -50 to -60 mV; pH 7.2; 0.1-10 mM glutamate for 20 s

N[C@@H](CCC(=O)O)C(=O)O [glutamate]
two-electrode voltage clamp of Xenopus oocytes, glutamate dose-response current: Dose-response relationship of GLR-1-expressing Xenopus oocyte
